Experiments:
[1] = Caco-2 assay (permeability PappAB, PappBA, efflux ratio); format: in vitro ADME; settings: human, Caco-2, 10 μM test compound, pH 7.4; for Papp A→B at 90 min, 10 μM: apical to basolateral; for efflux ratio at 90 min, 10 μM: efflux ratio PappBA/PappAB, read-out: Caco ER
In short: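 Confluent Caco-2 monolayers on filter supports, 0.25% BSA in both donor and receiver buffer; transport measured a-b and b-a. After 25-30 min preincubation at 37 °C, samples at 0, 30, 60, 90 min quantified by HPLC/MS/MS. Papp from receiver amount per time, filter area and initial donor concentration; efflux ratio = PappBA/PappAB.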

KRAS (G12C)::SOS1 = KRAS (G12C)::SOS1 (Homo sapiens (Human), UniProt P01116, C118S/C51S/C80L/G12C); assay: KRAS::SOS1 AlphaScreen binding assay, KRAS G12C
Sequence of KRAS (G12C)::SOS1 (P01116 other isoform, or with tags, fused parts or gaps G12C/C51S/C80L/C118S): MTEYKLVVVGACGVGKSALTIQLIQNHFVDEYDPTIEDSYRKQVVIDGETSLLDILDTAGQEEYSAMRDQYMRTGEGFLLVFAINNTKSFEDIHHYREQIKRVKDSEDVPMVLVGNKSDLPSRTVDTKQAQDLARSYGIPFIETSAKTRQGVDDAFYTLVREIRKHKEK
In short: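 AlphaScreen measurement of compound disruption of biotinylated, GDP-loaded KRAS 1-169 (10 nM; G12C 7.5 nM) binding to GST-SOS1 564-1049 (5 nM with G12D/G12C, 10 nM otherwise), with 10 μM GDP in PBS/0.1% BSA/0.05% Tween 20. Timing was 30 min compound preincubation, then 60 min with beads at room temperature; top concentration 100 μM, 4-parameter IC50.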

[2] = Plasma protein binding assay (PPB), equilibrium dialysis, 10% FCS in PBS; format: in vitro ADME; settings: bovine, read-out: PPB 10% FCS (% fu)
In short: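 Equilibrium dialysis (5-10 kg/mol cut-off membrane) of 1-10 μmol/L test compound in 10% FCS/PBS against PBS with or without dextran, 3-5 h at 37° C. Compound in each chamber quantified by LC-MS after protein precipitation; fu calculated from Cserum and Cbuffer.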

Compound	Papp A→B at 90 min, 10 μM [1] [×10⁻⁶ cm/s]	efflux ratio at 90 min, 10 μM [1]	IC50 (KRAS (G12C)::SOS1) [nM]	fraction unbound [2]
C[C@H](Oc1cc(N2C[C@H](C)N(C)[C@@H](C)C2)nc(-c2onc3c2CCC[C@@]32CCCc3sc(N)c(C#N)c32)n1)[C@@H]1CCCN1C [I-43]	2.6	6.7	6	0.73
C[C@H](Oc1cc(N2CCNC3(CCC3)C2)nc(-c2onc3c2CCC[C@@]32CCCc3sc(N)c(C#N)c32)n1)[C@@H]1CCCN1C [I-3]	1.2	20.8	3	0.68
C[C@H](Oc1cc(N2CC[C@H](N3CCCCC3)C2)nc(-c2noc3c2CCC[C@@]32CCCc3sc(N)c(C#N)c32)n1)[C@@H]1CCCN1C [II-12]	–	12.1	8	0.2
C[C@H](Oc1cc(N2CC[C@H](N3CCCC3)C2)nc(-c2noc3c2CCC[C@@]32CCCc3sc(N)c(C#N)c32)n1)[C@@H]1CCCN1C [II-14]	1	32.3	4	0.16
C[C@H](Oc1cc(N2CCN(CCO)CC2)nc(-c2noc3c2CCC[C@@]32CCCc3sc(N)c(C#N)c32)n1)[C@@H]1CCCN1C [II-8]	1.1	12.7	3	0.17
C[C@H](Oc1cc(N2CC3CCC(C2)N3)nc(-c2noc3c2CCC[C@@]32CCCc3sc(N)c(C#N)c32)n1)[C@@H]1CCCN1C [II-34]	0.4	37.8	3	0.37
C[C@H](Oc1cc(N2C[C@@H](N(C)C)[C@@H](O)C2)nc(-c2noc3c2CCC[C@@]32CCCc3sc(N)c(C#N)c32)n1)[C@@H]1CCCN1C [II-10]	0.3	68	7	0.69
CO[C@@H]1C[C@@H]([C@H](C)Oc2cc(N3CCN(C)C4(CC4)C3)nc(-c3onc4c3CCC[C@@]43CCCc4sc(N)c(C#N)c43)n2)N(C)C1 [I-50]	–	1.7	5	0.14
CN[C@H]1CCN(c2cc(O[C@@H](C)[C@@H]3CCCN3C)nc(-c3noc4c3CCC[C@@]43CCCc4sc(N)c(C#N)c43)n2)C1 [II-35]	< 0.5	–	7	0.77
C[C@H](Oc1cc(N2CCN(C)C3(CC3)C2)nc(-c2onc3c2CCC[C@@]32CCCc3sc(N)c(C#N)c32)n1)[C@@H]1C[C@@H](F)CN1C [I-39]	–	0.6	10	0.07
C[C@H](Oc1nc(-c2onc3c2CCC[C@@]32CCCc3sc(N)c(C#N)c32)cc(N2CCNC3(CC3)C2)n1)[C@@H]1CCCN1C [I-2]	1.2	17.5	45	0.69
C[C@H](Oc1cc(-n2ccnc2)nc(-c2onc3c2CCC[C@@]32CCCc3sc(N)c(C#N)c32)n1)[C@@H]1CCCN1C [I-20]	4.3	4.9	2	0.58

Next, values leading:

Papp A→B at 90 min, 10 μM [1] [×10⁻⁶ cm/s]	efflux ratio at 90 min, 10 μM [1]	IC50 (KRAS (G12C)::SOS1) [nM]	fraction unbound [2]	Compound
–	2	2	0.1	C[C@H](Oc1cc(-c2ccn([C@H]3CCCOC3)n2)nc(-c2noc3c2CCC[C@@]32CCCc3sc(N)c(C#N)c32)n1)[C@@H]1CCCN1C [II-42]
–	1.1	2	0.21	C[C@H](Oc1cc(-c2cnsc2)nc(-c2onc3c2CCC[C@@]32CCCc3sc(N)c(C#N)c32)n1)[C@@H]1CCCN1C [I-27]
12	2	2	0.26	C[C@H](Oc1cc(N2CCN(C)C3(COC3)C2)nc(-c2onc3c2CCC[C@@]32CCCc3sc(N)c(C#N)c32)n1)[C@@H]1C[C@@H](F)CN1C [I-37]
1.1	22.7	1	0.15	C[C@H](Oc1cc(-n2ccc(C(=O)NC3COC3)n2)nc(-c2noc3c2CCC[C@@]32CCCc3sc(N)c(C#N)c32)n1)[C@@H]1CCCN1C [II-25]
0.2	104	2	0.54	C[C@H](Oc1cc([C@H]2CCN(C)C2)nc(-c2noc3c2CCC[C@@]32CCCc3sc(N)c(C#N)c32)n1)[C@@H]1CCCN1C [II-38]
–	1.8	1	0.15	[2H]C([2H])([2H])N1C[C@H](F)C[C@H]1[C@H](C)Oc1cc(N2CCNC3(CC3)C2)nc(-c2noc3c2CCC[C@@]32CCCc3sc(N)c(C#N)c32)n1 [II-208]
10	1.2	1	0.11	C[C@H](Oc1cc(-c2ccn(C[C@@H]3CCCO3)n2)nc(-c2noc3c2CCC[C@@]32CCCc3sc(N)c(C#N)c32)n1)[C@@H]1CCCN1C [II-43]
18	1.9	2	0.38	C[C@H](Oc1cc([C@@H]2CCOC2)nc(-c2onc3c2CCC[C@@]32CCCc3sc(N)c(C#N)c32)n1)[C@@H]1CCCN1C [I-22]
2.3	13.9	2	0.53	C[C@H](O)Cn1ccc(-c2cc(O[C@@H](C)[C@@H]3CCCN3C)nc(-c3onc4c3CCC[C@@]43CCCc4sc(N)c(C#N)c43)n2)n1 [I-31]
1.4	21.4	2	0.24	C[C@H](Oc1cc(N2CCN(C)C3(COC3)C2)nc(-c2noc3c2CCC[C@@]32CCCc3sc(N)c(C#N)c32)n1)[C@@H]1CCCN1C [II-13]
